# Measured values from patent publication US8940724B2, “Quinoline derivitives and their uses” (Amgen Inc., priority 2009, dated 2015).
# Target: T1, PI3Kδ (Homo sapiens, UniProt O00329)
# T1 construct: Full length p110 subunits of PI3k α, β and δ, N-terminally labeled with polyHis tag; polyHis (N); made in house; host or cells: Sf9 insect cells (baculovirus)
# Experiment: PI3Kδ Alphascreen assay
# Format: biochemical
# T1 sequence (O00329 whole entry): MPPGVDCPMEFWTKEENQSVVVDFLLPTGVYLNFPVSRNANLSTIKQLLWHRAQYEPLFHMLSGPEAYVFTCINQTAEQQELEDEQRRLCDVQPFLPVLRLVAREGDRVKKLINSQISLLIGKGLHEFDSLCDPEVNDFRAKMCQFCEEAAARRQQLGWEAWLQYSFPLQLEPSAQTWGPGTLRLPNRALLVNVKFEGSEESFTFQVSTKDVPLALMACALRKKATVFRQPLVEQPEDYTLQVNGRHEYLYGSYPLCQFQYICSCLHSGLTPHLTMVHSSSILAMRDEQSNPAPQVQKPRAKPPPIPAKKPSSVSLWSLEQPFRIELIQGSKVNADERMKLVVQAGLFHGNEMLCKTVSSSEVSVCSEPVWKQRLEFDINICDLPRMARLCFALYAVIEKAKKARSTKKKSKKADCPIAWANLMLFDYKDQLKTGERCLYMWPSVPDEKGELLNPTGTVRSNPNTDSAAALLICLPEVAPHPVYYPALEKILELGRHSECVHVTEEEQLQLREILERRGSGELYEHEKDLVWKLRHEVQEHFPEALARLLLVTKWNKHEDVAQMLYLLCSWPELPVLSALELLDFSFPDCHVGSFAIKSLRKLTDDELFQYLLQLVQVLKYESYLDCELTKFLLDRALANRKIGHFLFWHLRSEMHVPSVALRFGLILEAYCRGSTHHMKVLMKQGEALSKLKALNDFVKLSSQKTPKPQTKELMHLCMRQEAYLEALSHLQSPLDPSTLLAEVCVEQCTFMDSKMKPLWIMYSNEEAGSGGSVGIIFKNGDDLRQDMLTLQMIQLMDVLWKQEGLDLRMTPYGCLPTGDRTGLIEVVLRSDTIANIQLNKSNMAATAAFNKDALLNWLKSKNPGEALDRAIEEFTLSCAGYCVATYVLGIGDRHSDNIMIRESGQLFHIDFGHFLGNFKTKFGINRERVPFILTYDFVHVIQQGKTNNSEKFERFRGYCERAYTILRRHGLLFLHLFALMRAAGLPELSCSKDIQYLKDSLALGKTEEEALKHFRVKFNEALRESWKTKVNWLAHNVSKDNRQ
# T1 sequence (P27986 whole entry partner): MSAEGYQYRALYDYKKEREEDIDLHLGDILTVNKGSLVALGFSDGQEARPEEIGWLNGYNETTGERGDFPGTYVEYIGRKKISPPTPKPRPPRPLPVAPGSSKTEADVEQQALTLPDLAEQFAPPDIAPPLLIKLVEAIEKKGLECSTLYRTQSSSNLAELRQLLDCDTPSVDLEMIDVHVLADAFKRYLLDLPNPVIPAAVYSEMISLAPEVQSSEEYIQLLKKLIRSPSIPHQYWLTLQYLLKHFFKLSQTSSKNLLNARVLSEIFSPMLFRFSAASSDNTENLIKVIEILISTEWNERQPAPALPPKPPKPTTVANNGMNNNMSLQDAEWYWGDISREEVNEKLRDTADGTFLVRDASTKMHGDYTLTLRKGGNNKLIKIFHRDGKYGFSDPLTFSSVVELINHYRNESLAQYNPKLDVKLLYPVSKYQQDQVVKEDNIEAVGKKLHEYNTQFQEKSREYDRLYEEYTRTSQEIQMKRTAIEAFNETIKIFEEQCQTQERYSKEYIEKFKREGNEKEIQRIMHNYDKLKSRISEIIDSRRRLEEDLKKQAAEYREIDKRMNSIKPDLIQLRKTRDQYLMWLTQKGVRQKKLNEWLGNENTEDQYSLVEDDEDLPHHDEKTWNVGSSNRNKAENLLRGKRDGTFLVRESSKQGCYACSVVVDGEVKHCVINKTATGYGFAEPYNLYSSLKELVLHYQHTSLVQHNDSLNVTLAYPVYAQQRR
row,SMILES,Ki [µM]
1,"Cc1c(-c2cnccn2)nc2cc(F)cc(F)c2c1Nc1cc(N2CCOCC2)cnc1N1CCOCC1 [N-(2,5-di-4-morpholinyl-3-pyridinyl)-5,7-difluoro-3-methyl-2-(2-pyrazinyl)-4-quinolinamine]",0.00795
2,"CCNC(=O)N1CCN(c2nc3cc(F)cc(F)c3c(Nc3cncc(N4CCOCC4)c3)c2C)CC1 [4-(5,7-difluoro-3-methyl-4-((5-(4-morpholinyl)-3-pyridinyl)-amino)-2-quinolinyl)-N-ethyl-1-piperazinecarboxamide]",0.0248
3,"Cc1c(-c2cccnc2)nc2cc(F)cc(F)c2c1N(C(=O)C(F)(F)F)c1cncc(N2CCOCC2)c1 [N-(5,7-difluoro-3-methyl-2-(3-pyridinyl)-4-quinolinyl)-2,2,2-trifluoro-N-(5-(4-morpholinyl)-3-pyridinyl)acetamide]",0.0473
4,"Cc1c(-c2ccc(C(F)(F)F)cc2C(F)(F)F)nc2cc(F)cc(F)c2c1Nc1cc(N2CCOCC2)cnc1N1CCOCC1 [2-(2,4-bis(trifluoromethyl)phenyl)-N-(2,5-di-4-morpholinyl-3-pyridinyl)-5,7-difluoro-3-methyl-4-quinolinamine]",0.344
5,"Cc1c(N2CCCCC2=O)nc2cc(F)cc(F)c2c1Nc1cncc(N2CCOCC2)c1 [1-(5,7-difluoro-3-methyl-4-((5-(4-morpholinyl)-3-pyridinyl)-amino)-2-quinolinyl)-2-piperidinone]",0.203
6,"Cc1c(-c2ccc(N3CCNCC3)nc2)nc2cc(F)cc(F)c2c1Nc1cncc(N2CCOCC2)c1 [5,7-difluoro-3-methyl-N-(5-(4-morpholinyl)-3-pyridinyl)-2-(6-(1-piperazinyl)-3-pyridinyl)-4-quinolinamine]",0.432
7,"COc1cnccc1-c1ncc(N2CCOCC2)cc1Nc1c(C)c(-c2ccccn2)nc2cc(F)cc(F)c12 [N-(5,7-difluoro-3-methyl-2-(2-pyridinyl)-4-quinolinyl)-3′-methoxy-5-(4-morpholinyl)-2,4′-bipyridin-3-amine]",0.00768
8,"COc1ccc(-c2ccc(N3CCOCC3)cc2Nc2c(C)c(-c3ccccn3)nc3cc(F)cc(F)c23)cc1 [5,7-difluoro-N-(4′-methoxy-4-(4-morpholinyl)-2-biphenylyl)-3-methyl-2-(2-pyridinyl)-4-quinolinamine]",0.0385
9,"Cc1c(N2CCN(C(=O)N(C)C)CC2)nc2cc(F)cc(F)c2c1Nc1cncc(N2CCOCC2)c1 [4-(5,7-difluoro-3-methyl-4-((5-(4-morpholinyl)-3-pyridinyl)-amino)-2-quinolinyl)-N,N-dimethyl-1-piperazinecarboxamide]",0.0725
10,"Cc1c(N2CCN[C@@H](C)C2)nc2cc(F)cc(F)c2c1Nc1cncc(N2CCOCC2)c1 [5,7-difluoro-3-methyl-2-((3S)-3-methyl-1-piperazinyl)-N-(5-(4-morpholinyl)-3-pyridinyl)-4-quinolinamine]",0.0206
11,"Cc1c(N2CCN(C(=O)C(C)C)CC2)nc2cc(F)cc(F)c2c1Nc1cncc(N2CCOCC2)c1 [5,7-difluoro-3-methyl-2-(4-(2-methylpropanoyl)-1-piperazinyl)-N-(5-(4-morpholinyl)-3-pyridinyl)-4-quinolinamine]",0.0333
12,"Cc1c(-c2cc(F)cc(F)c2)nc2ncccc2c1Nc1cc(N2CCOCC2)ccc1N1CCOCC1 [2-(3,5-difluorophenyl)-N-(2,5-di-4-morpholinylphenyl)-3-methyl-1,8-naphthyridin-4-amine]",0.582
13,"C=Cc1ccnc(-c2nc3cc(F)cc(F)c3c(Nc3cc(N4CCOCC4)cnc3N3CCOCC3)c2C)c1 [N-(2,5-di-4-morpholinyl-3-pyridinyl)-2-(4-ethenyl-2-pyridinyl)-5,7-difluoro-3-methyl-4-quinolinamine]",0.119
14,"Cc1c(N2CCN(C(=O)OC(C)(C)C)[C@H](C)C2)nc2cc(F)cc(F)c2c1Nc1cncc(N2CCOCC2)c1 [tert-butyl (2R)-4-(5,7-difluoro-3-methyl-4-((5-(4-morpholinyl)-3-pyridinyl)amino)-2-quinolinyl)-2-methyl-1-piperazinecarboxylate]",0.832
15,"Cc1c(N2CCN(C(C)C)CC2)nc2cc(F)cc(F)c2c1Nc1cncc(N2CCOCC2)c1 [5,7-difluoro-3-methyl-2-(4-(1-methylethyl)-1-piperazinyl)-N-(5-(4-morpholinyl)-3-pyridinyl)-4-quinolinamine]",0.0113
16,"COc1cc(C)c(-c2ncc(N3CCOCC3)cc2Nc2c(C)c(-c3ccccn3)nc3cc(F)cc(F)c23)c(C)c1 [5,7-difluoro-N-(2-(4-methoxy-2,6-dimethylphenyl)-5-(4-morpholinyl)-3-pyridinyl)-3-methyl-2-(2-pyridinyl)-4-quinolinamine]",0.000972
17,"Cc1c(-c2cc(Cl)ccn2)nc2cc(F)cc(F)c2c1Nc1cc(N2CCOCC2)cnc1N1CCOCC1 [2-(4-chloro-2-pyridinyl)-N-(2,5-di-4-morpholinyl-3-pyridinyl)-5,7-difluoro-3-methyl-4-quinolinamine]",0.00437
18,"Cc1c(N2CCN(c3cccnc3)CC2)nc2cc(F)cc(F)c2c1Nc1cncc(N2CCOCC2)c1 [5,7-difluoro-3-methyl-N-(5-(4-morpholinyl)-3-pyridinyl)-2-(4-(3-pyridinyl)-1-piperazinyl)-4-quinolinamine]",0.0118

row,SMILES,Ki [µM]
1,"Cc1c(-c2cc([N+](=O)[O-])ccc2S(C)(=O)=O)nc2cc(F)ccc2c1Nc1cc(N2CCOCC2)cnc1N1CCOCC1 [N-(2,5-di-4-morpholinyl-3-pyridinyl)-7-fluoro-3-methyl-2-(2-(methylsulfonyl)-5-nitrophenyl)-4-quinolinamine]",0.00825
2,"Cc1c(-c2ccc(N(C)C)nc2)nc2cc(F)cc(F)c2c1Nc1cncc(N2CCOCC2)c1 [2-(6-(dimethylamino)-3-pyridinyl)-5,7-difluoro-3-methyl-N-(5-(4-morpholinyl)-3-pyridinyl)-4-quinolinamine]",0.18
3,"Cc1c(-c2ccc(N3CCOCC3)nc2)nc2cc(F)cc(F)c2c1Nc1cncc(N2CCOCC2)c1 [5,7-difluoro-3-methyl-N-(5-(4-morpholinyl)-3-pyridinyl)-2-(6-(4-morpholinyl)-3-pyridinyl)-4-quinolinamine]",0.444
4,"Cc1c(N2CCN(C(=O)OCC(C)(C)C)CC2)nc2cc(F)cc(F)c2c1Nc1cncc(N2CCOCC2)c1 [2,2-dimethylpropyl 4-(5,7-difluoro-3-methyl-4-((5-(4-morpholinyl)-3-pyridinyl)amino)-2-quinolinyl)-1-piperazinecarboxylate]",0.099
5,"Cc1c(-c2cc([C@@H](C)O)ccc2S(C)(=O)=O)nc2cc(F)cc(F)c2c1Nc1cncc(N2CCOCC2)c1 [(1R)-1-(3-(5,7-difluoro-3-methyl-4-((5-(4-morpholinyl)-3-pyridinyl)amino)-2-quinolinyl)-4-(methylsulfonyl)phenyl)-ethanol]",0.00157
6,"Cc1c(N2CCN(C(=O)c3ccccc3)CC2)nc2cc(F)cc(F)c2c1Nc1cncc(N2CCOCC2)c1 [5,7-difluoro-3-methyl-N-(5-(4-morpholinyl)-3-pyridinyl)-2-(4-(phenylcarbonyl)-1-piperazinyl)-4-quinolinamine]",0.0879
7,"Cc1c(-c2ccccc2[S@+](C)[O-])nc2cc(F)cc(F)c2c1Nc1cncc(N2CCOCC2)c1 [5,7-difluoro-3-methyl-2-(2-((S)-methylsulfinyl)phenyl)-N-(5-(4-morpholinyl)-3-pyridinyl)-4-quinolinamine]",0.00389
8,"CSc1cncc(-c2nc3cc(F)cc(F)c3c(Nc3cc(N4CCOCC4)cnc3N3CCOCC3)c2C)c1 [N-(2,5-di-4-morpholinyl-3-pyridinyl)-5,7-difluoro-3-methyl-2-(5-(methylsulfanyl)-3-pyridinyl)-4-quinolinamine]",0.0113
9,"Cc1c(N2CCC[C@@H]2C(=O)OC(C)(C)C)nc2cc(F)cc(F)c2c1Nc1cncc(N2CCOCC2)c1 [tert-butyl 1-(5,7-difluoro-3-methyl-4-((5-(4-morpholinyl)-3-pyridinyl)amino)-2-quinolinyl)-D-prolinate]",0.018
10,"COc1cncc(-c2ccc(N3CCOCC3)cc2Nc2c(C)c(-c3ccccn3)nc3cc(F)cc(F)c23)c1 [5,7-difluoro-N-(2-(5-methoxy-3-pyridinyl)-5-(4-morpholinyl)-phenyl)-3-methyl-2-(2-pyridinyl)-4-quinolinamine]",0.000627
11,"Cc1c(N2CCN(S(C)(=O)=O)[C@H](C)C2)nc2cc(F)cc(F)c2c1Nc1cncc(N2CCOCC2)c1 [5,7-difluoro-3-methyl-2-((3R)-3-methyl-4-(methylsulfonyl)-1-piperazinyl)-N-(5-(4-morpholinyl)-3-pyridinyl)-4-quinolinamine]",0.244
12,"Cc1cc(C(F)(F)F)ccc1-c1nc2cc(F)cc(F)c2c(Nc2cc(N3CCOCC3)cnc2N2CCOCC2)c1C [N-(2,5-di-4-morpholinyl-3-pyridinyl)-5,7-difluoro-3-methyl-2-(2-methyl-4-(trifluoromethyl)phenyl)-4-quinolinamine]",0.248
13,"Cc1c(N2CCN(CC(F)(F)F)CC2)nc2cc(F)cc(F)c2c1N(CC(F)(F)F)c1cncc(N2CCOCC2)c1 [5,7-difluoro-3-methyl-N-(5-(4-morpholinyl)-3-pyridinyl)-N-(2,2,2-trifluoroethyl)-2-(4-(2,2,2-trifluoroethyl)-1-piperazinyl)-4-quinolinamine]",0.493
14,"CCN1CCN(c2nc3cc(F)cc(F)c3c(Nc3cc(N4CCOCC4)cnc3N3CCOCC3)c2C)CC1=O [4-(4-((2,5-di-4-morpholinyl-3-pyridinyl)amino)-5,7-difluoro-3-methyl-2-quinolinyl)-1-ethyl-2-piperazinone]",0.00129
15,"Cc1c(N2CCN(C(=O)c3ccncn3)CC2)nc2cc(F)cc(F)c2c1Nc1cncc(N2CCOCC2)c1 [5,7-difluoro-3-methyl-N-(5-(4-morpholinyl)-3-pyridinyl)-2-(4-(4-pyrimidinylcarbonyl)-1-piperazinyl)-4-quinolinamine]",0.0991
16,"Cc1c(-c2ccc(F)nc2)nc2cc(F)cc(F)c2c1Nc1cc(N2CCOCC2)cnc1N1CCOCC1 [N-(2,5-di-4-morpholinyl-3-pyridinyl)-5,7-difluoro-2-(6-fluoro-3-pyridinyl)-3-methyl-4-quinolinamine]",0.0185
17,"Cc1c(N2CC(C)(C)CCC2=O)nc2cc(F)cc(F)c2c1Nc1cncc(N2CCOCC2)c1 [1-(5,7-difluoro-3-methyl-4-((5-(4-morpholinyl)-3-pyridinyl)-amino)-2-quinolinyl)-5,5-dimethyl-2-piperidinone]",0.0386
